Assay [1] relates to R12.51 (DNA, aptamer) TGTACCGTCTGAGCGATTCGTACAGTTTCTGGAGGACTGGGCGGGGTGACGGTTATGAGCCAGTCAGTGTTAAGGAGTGC
As to the kind of experiment: competitive elution from immobilised fipronil, fluorescence. To be noted: 100 mM NaCl, 2 mM MgCl2, 20 mM Tris-HCl.

The test system is the same in assay [2]. Put plainly: plate-based fluorescence saturation binding. To be noted: 100 mM NaCl, 2 mM MgCl2; immobilised compound (maleic anhydride plate); 20 mM Tris-HCl; mean of four assays (55, 35, 38, 64 nM).

In the case of `CCC(=O)Nc1ccc(Cl)c(Cl)c1`, the binding entry in assay [1] (1 µM, fipronil/compound ratio 1.52 (5.05 at 200 nM in river water/buffer)) is on record as “weak”. On to `CCNc1nc(Cl)nc(NC(C)C)n1`, for which, in assay [1] (1 µM, fipronil/compound ratio 1.23 (4.80 at 200 nM in river water/buffer)), the binding entry is “weak”. Take `CCS(=O)c1c(C#N)nn(-c2c(Cl)cc(C(F)(F)F)cc2Cl)c1N` (centres unmarked): in assay [1] (1 µM, displaces MRE from immobilised fipronil, fipronil/compound ratio 1.10), the binding entry is reported as “yes”.

In the case of `N#Cc1nn(-c2c(Cl)cc(C(F)(F)F)cc2Cl)c(N)c1C(F)(F)F`, the binding result in assay [1] (1 µM, displaces MRE from immobilised fipronil, fipronil/compound ratio 1.16) is given as “yes”.

Take `N#Cc1nn(-c2c(Cl)cc(C(F)(F)F)cc2Cl)c(N)c1S(=O)(=O)C(F)(F)F`: the binding entry in assay [1] (1 µM, displaces MRE from immobilised fipronil, fipronil/compound ratio 1.07) is “yes”. `N#Cc1nn(-c2c(Cl)cc(C(F)(F)F)cc2Cl)c(N)c1S(=O)C(F)(F)F` (centres unmarked) showed a dissociation constant Kd in assay [2] of 48 ± 8 nM. Further, the binding entry in assay [1] (free compound 1 µM, normalized fluorescence 2.413 (no target 0.247)) is on record as “yes”. For `N#Cc1nn(-c2c(Cl)cc(C(F)(F)F)cc2Cl)c(N)c1SC(F)(F)F`, the binding entry in assay [1] (1 µM, displaces MRE from immobilised fipronil, fipronil/compound ratio 0.89) is reported as “yes”.

For orientation: Kd means the concentration at which binding is half-saturated. A higher Kd goes with lower affinity.
